Measured values from patent publication US4442044A, “Process for preparing monoesters and diesters of N-alkyl substituted amino methyl phosphonic acid” (priority 1983, dated 1984).

Columns and labels:
Test in all cases: post-emergent herbicidal activity, greenhouse
Type in all cases: in vivo
[1] = test system: Barnyardgrass
How it was run: (§1)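 Seeds or propagules sown in compacted top soil, grown 2–3 weeks in greenhouse, then sprayed with compound solution/suspension containing ~0.4% emulsifier at tabulated rates. Injury scored visually versus untreated controls at ~2 and 4 weeks after treatment, expressed as a herbicidal activity index.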

[2] = test system: Canada Thistle; details: Table I, 4 WAT
How it was run: as §1

[3] = test system: Cocklebur
How it was run: as §1

[4] = test system: Crabgrass; details: Table II
How it was run: as §1

[5] = test system: Downy Brome
How it was run: as §1

[6] = test system: Hemp Sesbania; details: Table II
How it was run: as §1

[7] = test system: Johnsongrass; details: Table I, 4 WAT
How it was run: as §1

[8] = test system: Lambsquarters
How it was run: as §1

[9] = test system: Morningglory
How it was run: as §1

[10] = test system: Panicum Spp; details: Table II
How it was run: as §1

[11] = test system: Quackgrass; details: Table I, 4 WAT
How it was run: as §1

[12] = test system: Rice; details: Table II
How it was run: as §1

[13] = test system: Smartweed
How it was run: as §1

[14] = test system: Sorghum; details: Table II
How it was run: as §1

[15] = test system: Soybean; details: Table II
How it was run: as §1

[16] = test system: Sugar Beet; details: Table II
How it was run: as §1

[17] = test system: Velvetleaf
How it was run: as §1

[18] = test system: Wheat; details: Table II
How it was run: as §1

[19] = test system: Wild Buckwheat; details: Table II
How it was run: as §1

[20] = test system: Yellow Nutsedge; details: Table I, 4 WAT
How it was run: as §1

## CC(C#N)OP(=O)(CNCC#N)OC(C)C#N (stereo not drawn) [Example 12, phosphonic acid, [[(cyanomethyl)amino]-methyl],bis 1-cyanoethyl ester]
[1]; Table I, 4 WAT, 5.6 kg/h
  post-emergent herbicidal activity index: 2 (50-74% control)
[1]; Table I, 4 WAT, 11.2 kg/h
  post-emergent herbicidal activity index: 3 (75-99% control)
[1]; Table II, 2 WAT, 0.28 kg/h
  post-emergent herbicidal activity index: 0 (0-24% control)
[1]; Table II, 4 WAT, 1.12 kg/h
  post-emergent herbicidal activity index: 1 (25-49% control)
[1]; Table II, 4 WAT, 5.6 kg/h
  post-emergent herbicidal activity index: 3 (75-99% control)
[2]; 5.6 kg/h
  post-emergent herbicidal activity index: 2 (50-74% control)
[2]; 11.2 kg/h
  post-emergent herbicidal activity index: 2 (50-74% control)
[3]; Table I, 4 WAT, 5.6 kg/h
  post-emergent herbicidal activity index: 2 (50-74% control)
[3]; Table I, 4 WAT, 11.2 kg/h
  post-emergent herbicidal activity index: 2 (50-74% control)
[3]; Table II, 2 WAT, 0.28 kg/h
  post-emergent herbicidal activity index: 0 (0-24% control)
[3]; Table II, 4 WAT, 1.12 kg/h
  post-emergent herbicidal activity index: 1 (25-49% control)
[3]; Table II, 4 WAT, 5.6 kg/h
  post-emergent herbicidal activity index: 3 (75-99% control)
[4]; 2 WAT, 0.28 kg/h
  post-emergent herbicidal activity index: 0 (0-24% control)
[4]; 4 WAT, 1.12 kg/h
  post-emergent herbicidal activity index: 2 (50-74% control)
[4]; 4 WAT, 5.6 kg/h
  post-emergent herbicidal activity index: 2 (50-74% control)
[5]; Table I, 4 WAT, 5.6 kg/h
  post-emergent herbicidal activity index: 2 (50-74% control)
[5]; Table I, 4 WAT, 11.2 kg/h
  post-emergent herbicidal activity index: 1 (25-49% control)
[5]; Table II, 2 WAT, 0.28 kg/h
  post-emergent herbicidal activity index: 0 (0-24% control)
[5]; Table II, 4 WAT, 1.12 kg/h
  post-emergent herbicidal activity index: 0 (0-24% control)
[5]; Table II, 4 WAT, 5.6 kg/h
  post-emergent herbicidal activity index: 3 (75-99% control)
[6]; 2 WAT, 0.28 kg/h
  post-emergent herbicidal activity index: 0 (0-24% control)
[6]; 4 WAT, 1.12 kg/h
  post-emergent herbicidal activity index: 0 (0-24% control)
[6]; 4 WAT, 5.6 kg/h
  post-emergent herbicidal activity index: 0 (0-24% control)
[7]; 5.6 kg/h
  post-emergent herbicidal activity index: 4 (100% control)
[7]; 11.2 kg/h
  post-emergent herbicidal activity index: 3 (75-99% control)
[8]; Table I, 4 WAT, 5.6 kg/h
  post-emergent herbicidal activity index: 3 (75-99% control)
[8]; Table I, 4 WAT, 11.2 kg/h
  post-emergent herbicidal activity index: 2 (50-74% control)
[8]; Table II, 2 WAT, 0.28 kg/h
  post-emergent herbicidal activity index: 1 (25-49% control)
[8]; Table II, 4 WAT, 1.12 kg/h
  post-emergent herbicidal activity index: 2 (50-74% control)
[8]; Table II, 4 WAT, 5.6 kg/h
  post-emergent herbicidal activity index: 4 (100% control)
[9]; Table I, 4 WAT, 5.6 kg/h
  post-emergent herbicidal activity index: 2 (50-74% control)
[9]; Table I, 4 WAT, 11.2 kg/h
  post-emergent herbicidal activity index: 2 (50-74% control)
[9]; Table II, 2 WAT, 0.28 kg/h
  post-emergent herbicidal activity index: 0 (0-24% control)
[9]; Table II, 4 WAT, 1.12 kg/h
  post-emergent herbicidal activity index: 1 (25-49% control)
[10]; 2 WAT, 0.28 kg/h
  post-emergent herbicidal activity index: 0 (0-24% control)
[10]; 4 WAT, 1.12 kg/h
  post-emergent herbicidal activity index: 0 (0-24% control)
[10]; 4 WAT, 5.6 kg/h
  post-emergent herbicidal activity index: 1 (25-49% control)
[11]; 5.6 kg/h
  post-emergent herbicidal activity index: 1 (25-49% control)
[11]; 11.2 kg/h
  post-emergent herbicidal activity index: 2 (50-74% control)
[12]; 2 WAT, 0.28 kg/h
  post-emergent herbicidal activity index: 0 (0-24% control)
[12]; 4 WAT, 1.12 kg/h
  post-emergent herbicidal activity index: 0 (0-24% control)
[12]; 4 WAT, 5.6 kg/h
  post-emergent herbicidal activity index: 2 (50-74% control)
[13]; Table I, 4 WAT, 5.6 kg/h
  post-emergent herbicidal activity index: 4 (100% control)
[13]; Table I, 4 WAT, 11.2 kg/h
  post-emergent herbicidal activity index: 4 (100% control)
[13]; Table II, 2 WAT, 0.28 kg/h
  post-emergent herbicidal activity index: 0 (0-24% control)
[13]; Table II, 4 WAT, 1.12 kg/h
  post-emergent herbicidal activity index: 0 (0-24% control)
[13]; Table II, 4 WAT, 5.6 kg/h
  post-emergent herbicidal activity index: 2 (50-74% control)
[14]; 2 WAT, 0.28 kg/h
  post-emergent herbicidal activity index: 1 (25-49% control)
[14]; 4 WAT, 1.12 kg/h
  post-emergent herbicidal activity index: 3 (75-99% control)
[14]; 4 WAT, 5.6 kg/h
  post-emergent herbicidal activity index: 4 (100% control)
[15]; 2 WAT, 0.28 kg/h
  post-emergent herbicidal activity index: 0 (0-24% control)
[15]; 4 WAT, 1.12 kg/h
  post-emergent herbicidal activity index: 1 (25-49% control)
[15]; 4 WAT, 5.6 kg/h
  post-emergent herbicidal activity index: 1 (25-49% control)
[16]; 2 WAT, 0.28 kg/h
  post-emergent herbicidal activity index: 0 (0-24% control)
[16]; 4 WAT, 1.12 kg/h
  post-emergent herbicidal activity index: 0 (0-24% control)
[16]; 4 WAT, 5.6 kg/h
  post-emergent herbicidal activity index: 1 (25-49% control)
[17]; Table I, 4 WAT, 5.6 kg/h
  post-emergent herbicidal activity index: 2 (50-74% control)
[17]; Table I, 4 WAT, 11.2 kg/h
  post-emergent herbicidal activity index: 2 (50-74% control)
[17]; Table II, 2 WAT, 0.28 kg/h
  post-emergent herbicidal activity index: 0 (0-24% control)
[17]; Table II, 4 WAT, 1.12 kg/h
  post-emergent herbicidal activity index: 1 (25-49% control)
[17]; Table II, 4 WAT, 5.6 kg/h
  post-emergent herbicidal activity index: 2 (50-74% control)
[18]; 2 WAT, 0.28 kg/h
  post-emergent herbicidal activity index: 0 (0-24% control)
[18]; 4 WAT, 1.12 kg/h
  post-emergent herbicidal activity index: 0 (0-24% control)
[18]; 4 WAT, 5.6 kg/h
  post-emergent herbicidal activity index: 2 (50-74% control)
[19]; 2 WAT, 0.28 kg/h
  post-emergent herbicidal activity index: 0 (0-24% control)
[19]; 4 WAT, 1.12 kg/h
  post-emergent herbicidal activity index: 1 (25-49% control)
[19]; 4 WAT, 5.6 kg/h
  post-emergent herbicidal activity index: 0 (0-24% control)
[20]; 5.6 kg/h
  post-emergent herbicidal activity index: 3 (75-99% control)
[20]; 11.2 kg/h
  post-emergent herbicidal activity index: 3 (75-99% control)
